The source of these data is patent publication US8044204B2, “8-methoxy-9H-isothiazolo[5,4-b]quinoline-3,4-diones and related compounds as anti-infective agents” (Achillion Pharmaceuticals, Inc., priority 2005, dated 2011).

In one test the test system is S. aureus ATCC 29213. Description: Minimum Inhibitory Concentration (MIC) assay, S. aureus. It is filed as cell-based. Conditions: Staphylococcus aureus, ATCC29213; broth microdilution; read-out: MIC against S. Aureus. Here is the method:
(§1) The antimicrobial activity of the compounds of the invention may be evaluated by a number of methods, including the following visual minimum inhibitory concentration (MIC) assay. This assay determines the minimum concentration of compound required to inhibit growth of a bacterial strain.
(§2) Minimum Inhibitory Concentration (MIC) Assay
(§3) Whole-cell antibacterial activity is determined by broth microdilution using conditions recommended by the NCCLS (see National Committee for Clinical Laboratory Standards. 2001. Performance standards for antimicrobial susceptibility testing: 11th informational supplement. Vol. 21, no. 1, M100-S11. National Committee for Clinical Laboratory Standards, Wayne, Pa.). Test compounds are dissolved in DMSO and diluted 1:50 in Mueller-Hinton II broth (Becton-Dickinson) to produce a 256 μg/ml stock solution. In a 96-well microtiter plate, the compound solution is serially two-fold diluted in Mueller-Hinton II broth. After the compounds are diluted, a 50 μl aliquot of the test organism (˜1×10^6 cfu/mL) is added to each well of the microtiter plate. The final test concentrations ranges from 0.125-128 μg/mL. Inoculated plates are incubated in ambient air at 37° C. for 18 to 24 hours. The organisms selected for testing included laboratory strains S. aureus ATCC 29213 and E. coli ATCC 25922 (strains purchased from American Type Culture Collection, Manassas, Va.), S. aureus FQR700699, and Paeruginosa 27853. The minimum inhibitory concentration (MIC) is determined as the lowest concentration of compound that inhibited visible growth of the test organism.
In general terms: In broth dilution the organism is exposed to a series of concentrations in liquid medium.

For a further test, the system named is E. coli ATCC 25922. Description: Minimum Inhibitory Concentration (MIC) assay, E. coli. It is filed as cell-based. Conditions: Escherichia coli, ATCC25922; broth microdilution; read-out: MIC against E. coli. As for the experimental part:
as §1, §2, §3

In general, MIC refers to the lowest concentration that inhibits growth of the organism. For the molecule `CC1CN(c2cc3c(cc2F)c(=O)c2c(=O)[nH]sc2n3C2CC2)CCN1` (stereo not drawn) [Compound 17, 9-cyclopropyl-6-fluoro-7-(3-methyl-piperazin-1-yl)isothia-zolo[5,4-b]quinoline-3,4(2H,9H)-dione], the MIC with S. aureus ATCC 29213 and in the test with E. coli ATCC 25922 was at most 1 µg/mL throughout. As for `O=c1[nH]sc2c1c(=O)c1cc(F)c(N3CCC(O)C3)cc1n2C1CC1` (stereo not drawn) [Compound 18, 9-cyclopropyl-6-fluoro-7-(3-hydroxy-pyrrolidin-1-yl)isothia-zolo[5,4-b]quinoline-3,4(2H,9H)-dione], the MIC in the test with S. aureus ATCC 29213 and with E. coli ATCC 25922 was at most 1 µg/mL throughout. For `O=c1[nH]sc2c1c(=O)c1cc(F)c(N3CCOCC3)cc1n2C1CC1` [Compound 19, 9-cyclopropyl-6-fluoro-7-morpholino-isothiazolo[5,4-b]quinoline-3,4(2H,9H)-dione], the MIC in the test on S. aureus ATCC 29213 and with E. coli ATCC 25922 was at most 1 µg/mL in each case. Turning to `O=c1[nH]sc2c1c(=O)c1cc(F)c(N3CCNCC3)cc1n2C1CC1` [Compound 20, 9-cyclopropyl-6-fluoro-7-(piperazin-1-yl)isothia-zolo[5,4-b]quinoline-3,4(2H,9H)-dione], the MIC in the test on S. aureus ATCC 29213 and in the test with E. coli ATCC 25922 was at most 1 µg/mL each time.

As for `CN1CCN(c2cc3c(cc2F)c(=O)c2c(=O)[nH]sc2n3C2CC2)CC1` [Compound 21, 9-cyclopropyl-6-fluoro-7-(4-methyl-piperazin-1-yl)isothia-zolo[5,4-b]quinoline-3,4(2H,9H)-dione], the MIC with S. aureus ATCC 29213 and with E. coli ATCC 25922 was at most 1 µg/mL each time.

As for `CN(C)C1CCN(c2cc3c(cc2F)c(=O)c2c(=O)[nH]sc2n3C2CC2)C1` (stereo not drawn) [Compound 22, 9-cyclopropyl-7-(3-(dimethyl-amino)pyrrolidin-1-yl)-6-fluoroiso-thiazolo[5,4-b]quinoline-3,4(2H,9H)-dione], the MIC in the test with S. aureus ATCC 29213 and in the test on E. coli ATCC 25922 was at most 1 µg/mL in each case. For the molecule `O=c1[nH]sc2c1c(=O)c1cc(F)c(N3CCCCC3)cc1n2C1CC1` [Compound 23, 9-cyclopropyl-6-fluoro-7-(piperidin-1-yl)isothia-zolo[5,4-b]quinoline-3,4(2H,9H)-dione], in the test with S. aureus ATCC 29213, the MIC is at most 1 µg/mL. As for `O=c1[nH]sc2c1c(=O)c1cc(F)c(N3CCCC3)cc1n2C1CC1` [Compound 24, 9-cyclopropyl-6-fluoro-7-(pyrrolidin-1-yl)isothia-zolo[5,4-b]quinoline-3,4(2H,9H)-dione], the MIC with S. aureus ATCC 29213 is at most 1 µg/mL. Still for that read-out and setting: as for `CN(C(=O)OC(C)(C)C)C1CCN(c2cc3c(cc2F)c(=O)c2c(=O)[nH]sc2n3C2CC2)C1` (stereo not drawn) [Compound 25, tert-butyl 1-(9-cyclopropyl-6-fluoro-3,4-dioxo-2,3,4,9-tetrahydroiso-thiazolo[5,4-b]quinolin-7-yl)pyrrolidin-3-yl(methyl) carbamate], the figure is at most 1 µg/mL. As to `CC(C)(C)OC(=O)N1CCN(c2cc3c(cc2F)c(=O)c2c(=O)[nH]sc2n3C2CC2)CC1` [Compound 26, tert-butyl 4-(9-cyclopropyl-6-fluoro-3,4-dioxo-2,3,4,9-tetrahydroiso-thiazolo[5,4-b]quinolin-7-yl)piperazine-1-carboxylate], the MIC in the test on S. aureus ATCC 29213 and in the test on E. coli ATCC 25922 was at most 1 µg/mL each time. As for `CC(C)(C)OC(=O)NC1CCN(c2cc3c(cc2F)c(=O)c2c(=O)[nH]sc2n3C2CC2)C1` (stereo not drawn) [Compound 27, tert-butyl 1-(9-cyclopropyl-6-fluoro-3,4-dioxo-2,3,4,9-tetrahydroiso-thiazolo[5,4-b]quinolin-7-yl)pyrrolidin-3-ylcarbamate], the MIC in the test on S. aureus ATCC 29213 and with E. coli ATCC 25922 was at most 1 µg/mL throughout. Turning to `O=c1[nH]sc2c1c(=O)c1cc(F)c(N3CCSCC3)cc1n2C1CC1` [Compound 28, 9-cyclopropyl-6-fluoro-7-thiomorpho-linoiso-thiazolo[5,4-b]quinoline-3,4(2H,9H)-dione], the MIC in the test with S. aureus ATCC 29213 and in the test with E. coli ATCC 25922 was at most 1 µg/mL each time. For `O=c1[nH]sc2c1c(=O)c1cc(F)c(NCCN3CCOCC3)cc1n2C1CC1` [Compound 29, 9-cyclopropyl-6-fluoro-7-(2-morpholino-ethyl-amino)iso-thiazolo[5,4-b]quinoline-3,4(2H,9H)-dione], the MIC in the test with S. aureus ATCC 29213 and with E. coli ATCC 25922 was at most 1 µg/mL in each case. As to `O=c1[nH]sc2c1c(=O)c1cc(F)c(N3CCN(CCN4CCCC4)CC3)cc1n2C1CC1` [Compound 30], the MIC with S. aureus ATCC 29213 and in the test with E. coli ATCC 25922 was at most 1 µg/mL throughout.

As to `CCn1c2cc(N3CCNCC3)c(F)cc2c(=O)c2c(=O)[nH]sc21` [Compound 31, 9-ethyl-6-fluoro-7-(piperazin-1-yl)isothia-zolo[5,4-b]quinoline-3,4(2H,9H)-dione], the MIC with S. aureus ATCC 29213 and in the test with E. coli ATCC 25922 was at most 1 µg/mL throughout.

As for `CN(C)CCN1CCN(c2cc3c(cc2F)c(=O)c2c(=O)[nH]sc2n3C2CC2)CC1` [Compound 32, 9-cyclopropyl-7-(4-(2-(dimethyl-amino)ethyl)piperazin-1-yl)-6-fluoroiso-thiazolo[5,4-b]quinoline-3,4(2H,9H)-dione], the MIC with S. aureus ATCC 29213 and in the test on E. coli ATCC 25922 was at most 1 µg/mL throughout.

Take `COc1c(N2CC[C@H](C(C)(C)N)C2)ccc2c(=O)c3c(=O)[nH]sc3n(C3CC3)c12` [Compound 60, (S)-7-(3-(2-aminopropan-2-yl)pyrrolidin-1-yl)-9-cyclopropyl-8-methoxyiso-thiazolo[5,4-b]quinoline-3,4(2H,9H)-dione]: the MIC in the test on S. aureus ATCC 29213 was at most 1 µg/mL.

Turning to `CCn1c2s[nH]c(=O)c2c(=O)c2cc(F)c(N3CCNCC3)c(OC)c21` [Compound 62, 9-ethyl-6-fluoro-8-methoxy-7-(piperazin-1-yl)isothia-zolo[5,4-b]quinoline-3,4(2H,9H)-dione], in the test with S. aureus ATCC 29213, the MIC was at most 1 µg/mL. Same read-out and setting: as for `COc1c(N2CC[C@@H](CN)C2)ccc2c(=O)c3c(=O)[nH]sc3n(C3CC3)c12` [Compound 65, (S)-7-(3-(aminomethyl)-pyrrolidin-1-yl)-9-cyclopropyl-8-methoxyiso-thiazolo[5,4-b]quinoline-3,4(2H,9H)-dione], the figure is at most 1 µg/mL; as for `COc1c(N2C[C@@H]3CCCN[C@@H]3C2)c(F)cc2c(=O)c3c(=O)[nH]sc3n(C3CC3)c12` [Compound 69, 9-cyclopropyl-6-fluoro-8-methoxy-7-((4aS,7aS)-octahydro-pyrrolo[3,4-b]pyridin-6-yl)isothia-zolo[5,4-b]quinoline-3,4(2H,9H)-dione], at most 1 µg/mL.

In the case of `COc1cc2c(=O)c3c(=O)[nH]sc3n(C3CC3)c2c(F)c1N1CCNCC1` [Compound 84, 9-cyclopropyl-8-fluoro-6-methoxy-7-(piperazin-1-yl)isothia-zolo[5,4-b]quinoline-3,4(2H,9H)-dione], the MIC with E. coli ATCC 25922 is at most 1 µg/mL.

As to `CC[C@H](NC)[C@@H]1CCN(c2c(F)cc3c(=O)c4c(=O)[nH]sc4n(C4CC4)c3c2OC)C1` [Compound 91, 9-cyclopropyl-6-fluoro-8-methoxy-7-((R)-3-((S)-1-(methylamino)-propyl)pyrrolidin-1-yl)isothia-zolo[5,4-b]quinoline-3,4(2H,9H)-dione], the MIC in the test on S. aureus ATCC 29213 was at most 1 µg/mL.

As to `COc1c(N2CC[C@@H](N)C2)c(F)cc2c(=O)c3c(=O)[nH]sc3n(C3CC3)c12` [Compound 96, (R)-7-(3-amino-pyrrolidin-1-yl)-9-cyclopropyl-6-fluoro-8-methoxyiso-thiazolo[5,4-b]quinoline-3,4(2H,9H)-dione], the MIC with S. aureus ATCC 29213 is at most 1 µg/mL. Still for that read-out and setting: to `COc1c(N2CC[C@@H](N)C2)ccc2c(=O)c3c(=O)[nH]sc3n(C3CC3)c12` [Compound 97, (R)-7-(3-amino-pyrrolidin-1-yl)-9-cyclopropyl-8-methoxyiso-thiazolo[5,4-b]quinoline-3,4(2H,9H)-dione] belongs at most 1 µg/mL; to `CN[C@@H]1CCN(c2c(F)cc3c(=O)c4c(=O)[nH]sc4n(C4CC4)c3c2OC)C1` [Compound 98, (R)-9-cyclo-propyl-6-fluoro-8-methoxy-7-(3-(methylamino)-pyrrolidin-1-yl)isothia-zolo[5,4-b]quinoline-3,4(2H,9H)-dione], at most 1 µg/mL.

Consider `CN[C@@H]1CCN(c2ccc3c(=O)c4c(=O)[nH]sc4n(C4CC4)c3c2OC)C1` [Compound 99, (R)-9-cyclo-propyl-8-methoxy-7-(3-(methyl-amino)-pyrrolidin-1-yl)iso-thiazolo[5,4-b]quinoline-3,4(2H,9H)-dione], for which the MIC with S. aureus ATCC 29213 is at most 1 µg/mL. Same read-out and setting: to `COc1c(N2CCC(N)(CO)C2)c(F)cc2c(=O)c3c(=O)[nH]sc3n(C3CC3)c12` (stereo not drawn) [Compound 109, 7-(3-amino-3-(hydroxy-methyl)-pyrrolidin-1-yl)-9-cyclo-propyl-6-fluoro-8-methoxyiso-thiazolo[5,4-b]quinoline-3,4(2H,9H)-dione] belongs at most 1 µg/mL. For the molecule `COc1c(N2CC[C@@H]([C@@H](C)N)C2)ccc2c(=O)c3c(=O)[nH]sc3n(C3CC3)c12` [Compound 110, 7-((R)-3-((R)-1-aminoethyl)-pyrrolidin-1-yl)-9-cyclo-propyl-8-methoxyiso-thiazolo[5,4-b]quinoline-3,4(2H,9H)-dione], the MIC in the test with S. aureus ATCC 29213 was at most 1 µg/mL.

With `COc1c(N2CC[C@@H](C(C)NC3CCCC3)C2)c(F)cc2c(=O)c3c(=O)[nH]sc3n(C3CC3)c12` (stereo partly drawn) [Compound 113, (R)-7-(3-(1-(cyclopentyl-amino)ethyl)pyrrolidin-1-yl)-9-cyclopropyl-6-fluoro-8-methoxyiso-thiazolo[5,4-b]quinoline-3,4(2H,9H)-dione], the MIC in the test with S. aureus ATCC 29213 is at most 1 µg/mL.
